Test results as given in patent US4550118A, “Heterocyclic compounds” (Ikeda Mohando Co., Ltd., priority 1982, dated 1985).
Counter-ions that a name gives are not always drawn. Like-named read-outs stand apart in the source and are kept apart here.

Legend:
[1] = test system: acid secretion in pylorus-ligated rats; test: Anti-secretory effect (histamine-stimulated gastric acid secretion) in pylorus-ligated rat; assay type: in vivo, male wistar rats; details: for ED50: read-out: ED 50 (acid secretion inhibition); for acid secretion inhibition: 5 rats
gastric mucus secretion = test: Effect on gastric mucus secretion in rats (alcian blue binding); assay type: in vivo, Wistar male rats; details: 10 mg/kg × 2/day orally for 7 days, * significant at 5%, ** at 1%; for Alcian blue binding: 7 rats; for % Change (Alcian blue binding): vs control (0.5% CMC)
Protocol: The test compounds were administered orally to Wistar male rats weighing from 160 to 180 g so as to investigate the effect on gastric mucus secretion. The amount of mucus was determined using alcian blue color specifically bonding with acid mucosaccharides, and was expressed by the amount of color bonding with a unit weight (OD units/g tissue). The test compounds were administered at a dosage of 10 mg/kg twice a day for 7 days, and the rats were sacrificed one hour after the final administration in the morning on the 8th day by cervical dislocation. After laparatomy, the stomach was removed. After removal of the forestomach, an incision was made along the greater curvatura. The stomach was lightly washed with a 0.25M sucrose solution cooled with ice. The weight was determined after absorption of water with a filter paper.
Then, the stomach was exposed for 1.5 hrs in 10 ml of 0.25M sucrose solution containing 0.1% alcian blue 8 GX for staining. Then, the stained stomach was washed with 10 ml of a 0.25M sucrose for 15 min, being dipped in 15 ml of a 0.5M MgCl2 for 2 hrs so as to elute alcian blue combined with the mucus. Finally, 10 ml of ethyl ether was added, and the mixture was shaken vigorously. The floating substances were removed, and the aqueous layer was quantified by measuring the absorption at 605 nm.
The above procedures were carried out at room temperature.

[2] = target: T1, histamine H2 receptor in atria (Cavia porcellus, UniProt P47747); test: Histamine H2 receptor inhibition effect by isolated guinea pig right atrium preparation (negative chronotropic effect); assay type: cell-based, Male Hartley Guinea Pig; details: 5×10^-6 mol sample 3 minutes prior to histamine, mean of five; for Kb: read-out: inhibitory effect of histamine H2 receptor in atria (pA2 value) (converted)
T1 construct: right atrium was isolated; from tissue; host or cells: isolated right atrium of male Hartley guinea pig
Protocol: (B) Measurement of Histamine H2 Receptor Inhibition Effect by Isolated Guinea Pig Right Atrium Preparation
Male Hartley Guinea Pig weighing around 400 g was sacrified by decapitation, and right atrium was isolated. The right atrium was suspended in an organ bath (50 ml) containing modified Ringer solution. Under application of a tensile load of 1 g, the heart rate was recorded by means of a polygraph. Histamine was applied cumulatively from 1×10^-7 mol to 3×10^-4 mol and a cumulative dosage response curve was drawn. Then, 5×10^-6 mol of the sample was administered 3 minutes prios to histamine application. The negative logarithmic value (pA2) of the specimen molarity required for shifting the curve to the right to double concentration was calculated.

[3] = test system: acid secretion in pylorus-ligated rats; test: Anti-secretory effect (histamine-stimulated gastric acid secretion) in pylorus-ligated rat; assay type: in vivo, male wistar rats; details: Rattus norvegicus, sc, 3 h; 2 mg/kg s.c., 30 min before histamine 3 mg/kg s.c.; n=5; * significant at 5%, ** at 1% vs control; read-out: inhibitory effect of acid secretion (%) at 2 mg/kg s.c.
Protocol: (A) Anti-secretory Effect in Pylorus-ligated Rat
After 24 hr fasting, male wistar rats weighing about 160 g were anesthetized by intraperitoreal injection of urethans 1.2 g/kg. Then, after ligating the pylorus and the esophagus, the proventriculus was incised and a double polyethylene cannula was inserted. The gastric wall was washed out with 5 ml of physiological saline every 30 minutes and the amount of acid contained in the saline after washing was measured by titration. After measuring the basal acid secretion of the pylorus ligated rats three times, the compounds of the invention, 2 mg/kg, were administered subcutaneously and, 30 minutes thereafter, histamine 3 mg/kg, was administered also subcutaneously. Then, the amounts of acid secretion were measured for 3 hours. […] Then, an inhibition rate was calculated in accordance with the following formula, in relation to the increment values measured for the control group. [formula]
One group included five examples.

[4] = Acute oral toxicity test in mice (LD50, Litchfield-Wilcoxon); details: mouse, in vivo
Protocol: Male dd-mice were divided into groups of 5 and fasted for 8 hours. The test compounds were administered orally to the mice weighing from 19.7 g. to 22.0 g. The mice were observed survival or death as well as the general symptoms over 7 days after the administration of the compounds. The value of LD50 for each compound was estimated from the mortality observed on the basis of the Litchfield-Wilcoxon method.
In a similar test, the test compound of example 27, 35, 66, 84, 97, 104, 118, 125 or 129 was administered orally to the mice at a dose of 1500 mg/kg.

[5] = similar test, oral dose of 1500 mg/kg

T1 sequence (P47747 whole entry): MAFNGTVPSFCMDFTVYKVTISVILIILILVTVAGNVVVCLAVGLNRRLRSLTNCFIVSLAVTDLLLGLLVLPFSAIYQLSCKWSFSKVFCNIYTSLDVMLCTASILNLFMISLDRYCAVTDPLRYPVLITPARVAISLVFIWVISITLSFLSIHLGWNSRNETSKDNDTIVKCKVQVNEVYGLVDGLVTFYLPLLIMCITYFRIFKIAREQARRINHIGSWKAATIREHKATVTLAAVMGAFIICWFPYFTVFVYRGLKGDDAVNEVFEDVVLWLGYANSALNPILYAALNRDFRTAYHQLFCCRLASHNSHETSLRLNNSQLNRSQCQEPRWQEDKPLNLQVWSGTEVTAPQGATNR

| SMILES | Kb [2] | inhibition in vivo at 2 mg/kg [3] | LD50 at 168 h [4, 5] | further results |
| --- | --- | --- | --- | --- |
| CN/C(=N/CCSCc1nc[nH]c1C)NC#N [Cimetidine, cimetidine, reference compound] |  |  |  | inhibition in vivo at 2 mg/kg ([1]; Rattus norvegicus, sc, 3 h, read-out: inhibitory effect of acid secretion (%) at 2 mg/kg s.c.): 63%; ED50 ([1]; Rattus norvegicus, sc): 2.77 µmol/kg; acid secretion inhibition ([1]; Table 2, dosage 2.0 μmol/kg): 37%; acid secretion inhibition ([1]; Table 2, dosage 5.9 μmol/kg): 75%; acid secretion inhibition ([1]; Table 2, dosage 17.8 μmol/kg): 83% |
| CNC(=NC#N)NCCCOc1ccc2[nH]c(NC(=N)N)nc2c1 [Example 8, N-cyano-N'-methyl-N"-[3-<5-(2-guanidinobenzimidazolyl)oxypropyl] guanidine] |  |  |  | Alcian blue binding (gastric mucus secretion): 0.55 ± 0.04 OD units/g tissue; % Change (Alcian blue binding) (gastric mucus secretion): +52.5% |
| CNC(=C[N+](=O)[O-])NCCCOc1ccc2[nH]c(CN(C)C)nc2c1 [Example 27, 1-nitro-2-methylamino-2-[3-<5-(2-dimethylaminomethylbenzimidazolyl)oxy>propylamino]ethylene] | 16200 nM | 73% | > 1500 mg/kg |  |
| CNC(=NC#N)NCCSCc1ccc2[nH]c(CN(C)C)nc2c1 [Example 35, N-cyano-N'-methyl-N"-[2-<5-(2-dimethylaminomethylbenzimidazolyl)methylthio>ethyl]guanidine] | 646 nM | 64% | > 1500 mg/kg |  |
| CN(C)Cc1nc2cc(OCCCNc3ncc(Cc4cccnc4)c(=O)[nH]3)ccc2[nH]1 [Example 66, 2-[3-<5-(2-dimethylaminomethylbenzimidazolyl)oxy>propylamino]-5-(3-pyridylmethyl)-4-pyrimidone] | 1950 nM | 100% | > 1500 mg/kg |  |
| CN(C)Cc1cccc(Cc2cnc(NCCCOc3ccc4[nH]c(CN(C)C)nc4c3)[nH]c2=O)c1 [Example 70, 2-[3-<5-(2-dimethylaminomethylbenzimidazolyl)oxy>propylamino]-5-(3-dimethylaminomethylbenzyl)-4-pyrimidone] | 2450 nM | 102% |  | effective ratio ([1]; ED50 relative to cimetidine = 1.0): 25.2; ED50 ([1]; Rattus norvegicus, sc, pylorus-ligated rats, 95% confidence limit printed on following lines): 0.11 µmol/kg; acid secretion inhibition ([1]; Table 2, dosage 0.067 μmol/kg): 35%; acid secretion inhibition ([1]; Table 2, dosage 0.204 μmol/kg): 71%; acid secretion inhibition ([1]; Table 2, dosage 0.613 μmol/kg): 93%; LD50 at 168 h ([4]; oral, groups of 5, 7 days observation): 2800 mg/kg |
| CN(C)Cc1cccc(Cc2cnc(NCCSCc3ccc4[nH]c(CN(C)C)nc4c3)[nH]c2=O)c1 [Example 78, 2-[2-<5-(2-dimethylaminomethylbenzimidazolyl)methylthio>ethylamino]-5-(3-dimethylaminomethylbenzyl)-4-pyrimidone] | 1780 nM | 107% |  | Alcian blue binding (gastric mucus secretion): 0.45 ± 0.04 OD units/g tissue; % Change (Alcian blue binding) (gastric mucus secretion): +24.6% |
| O=c1[nH]c(NCCCOc2ccc3[nH]c(CN4CCCC4)nc3c2)nnc1Cc1cccnc1 [Example 84] | 2190 nM | 75% | > 1500 mg/kg |  |
| CCNc1n[s+]([O-])nc1NCCCOc1ccc2[nH]c(CN(C)C)nc2c1 (stereo not drawn) [Example 102, 3-[3-<5-(2-dimethylaminomethylbensimidazolyl)oxi>propyl]amino-4-ethylamino-1,2,5-thiadiazol-1-oxide] | 2190 nM | 68% |  |  |
| CN(C)Cc1nc2cc(CSCCNC3=NS(=O)(=O)N=C3N)ccc2[nH]1 [Example 104, 3-[2-<5-(2-dimethylaminomethylbenzimidazolyl)methylthio>ethyl]amino-4-amino-1,2,5-thiadiazole-1.1-dioxide] | 1950 nM | 96% | > 1500 mg/kg |  |
| Nc1n[s+]([O-])nc1NCCSCc1ccc2[nH]c(CN3CCCCC3)nc2c1 (stereo not drawn) [Example 105, 3-{2-[5-<2-(1-piperidinomethyl)benzimidazolyl>methylthio]ethyl}amino-4-amino-1,2,5-thiadiazole-1-oxide] |  | 92% |  | inhibitory effect of histamine H2 receptor in atria (pA2 value) [2]: 6.08 |
| CNc1n[s+]([O-])nc1NCCSCc1ccc2[nH]c(CN(C)C)nc2c1 (stereo not drawn) [Example 106, 3-[2-<5-(2-dimethylaminomethylbenzimidazolyl)methylthio>ethyl]amino-4-methylamino-1,2,5-thiadiazole-1-oxide] | 537 nM | 89% |  |  |
| CCNc1n[s+]([O-])nc1NCCSCc1ccc2[nH]c(CN(C)C)nc2c1 (stereo not drawn) [Example 108, 3-[2-<5-(2-dimethylaminomethylbenzimidazolyl)methylthio>ethyl]amino-4-ethylamino-1,2,5-thiadiazole-1-oxide] | 1450 nM | 77% |  |  |
| C#CCNc1n[s+]([O-])nc1NCCSCc1ccc2[nH]c(CN(C)C)nc2c1 (stereo not drawn) [Example 109, 3-[2-<5-(2-dimethylaminomethylbenzimidazolyl)methylthio>ethyl]amino-4-(2-propinylamino)-1,2,5-thiadiazole-1-oxide] | 759 nM | 74% |  |  |
| C#CCNC1=NS(=O)(=O)N=C1NCCSCc1ccc2[nH]c(CN(C)C)nc2c1 [Example 110, 3-[2-<5-(2-dimethylaminomethylbenzimidazolyl)methylthio>ethyl]amino-4-(2-propynylamino)-1,2,5-thiadoazole-1,1-dioxide] | 1580 nM | 68% |  |  |
| CCNc1n[s+]([O-])nc1NCCCSc1ccc2[nH]c(NC(=N)N)nc2c1 (stereo not drawn) [Example 113, 3-N-[3-<5-(2-guanidinobenzimidazolyl)thio>propyl]amino-4-ethylamino-1,2,5-thiadiazole-1-oxide] | 8510 nM | 63% |  |  |
| NC(=O)N=C(N)CCCOc1ccc2[nH]c(CN3CCCCC3)nc2c1 [Example 118, N-carbamoyl-4-[5-<2-(1-piperidinomethyl)benzimidazolyl>oxy]butyroamidine.3hydrochloride] |  |  | > 1500 mg/kg |  |
| CN(C)Cc1nc2cc(CSCCC(N)=NS(N)(=O)=O)ccc2[nH]1 [Example 121, N-sulfamoyl-3-[5-(2-dimethylaminomethylbenzimidazolyl)methylthio]propionamidine] | 562 nM | 76% |  |  |
| CN(C)Cc1nc2cc(CSCCCC(N)=NS(N)(=O)=O)ccc2[nH]1 [Example 122, N-sulfamoyl-4-[5-(2-dimethylaminomethylbenzimidazolyl)methylthio]butyroamidine] | 2450 nM | 32% |  |  |
| CN(C)Cc1nc2cc(CSCCC(N)=NC#N)ccc2[nH]1 [Example 125, N-cyano-3-[5-(2-dimethylaminomethylbenzimidazolyl)methylthio]propionamidine] |  |  | > 1500 mg/kg |  |
| CN(C)Cc1nc2cc(CSCCC(N)=NC(N)=O)ccc2[nH]1 [Example 129, N-carbamoyl-3-[5-(2-dimethylaminomethylbenzimidazolyl)methylthio]propionamidine] | 759 nM | 72% | > 1500 mg/kg |  |
